Columns and labels:
alopecia areata = details: cited from earlier work
[1] = Safety: monitoring all adverse events during and after the PDT treatment; assay type: in vivo, human; details: single topical QLT0074 ointment 0.2% w/w plus 50 or 75 J/cm^2 red light; 10 subjects
Procedure: A total of 10 subjects were treated. All subjects were human males over 18 years of age and had type II or III Vertex alopecia, rated according to the modified Hamilton-Norwood scale.
All subjects received a single application of topical QLT0074 ointment 0.2% weight in weight (w/w) to two of three circular test sites on the vertex area of the scalp. The amount of ointment applied to each test site was approximately 224 mg (about 0.44mg of photosensitizer per test site). After 2 hours the excess drug was removed and red light (LED's—690nm) was administered to two of the three sites. The other test site served as a control with no drug or light administration.
Two light dose cohorts (50 and 75 J/cm^2) were investigated with each cohort having 5 subjects.
Safety was assessed by monitoring all adverse events during and after the treatment.

[2] = system: human males with type II or III Vertex alopecia; experiment: Terminal hair counts 3 months after single topical PDT treatment, compared to baseline; assay type: in vivo; details: 3 months after treatment vs baseline, 5 subjects
Source text: As used herein, the term “hair growth” refers to an increase in number of terminal hairs present. Terminal hair counts can be conducted in a number of ways. For example, the terminal hair can be counted by trained and validated technicians who perform a computer-assisted count on macrophotographs. In brief, a target area on the scalp is chosen, the hair clipped and the scalp permanently marked with a single dot tattoo in the center in order to facilitate the exact positioning at each subsequent photo session. The macrophotography is performed using a preset camera with a macro lens and a stand that provides a constant reproduction ratio and electronic flashes that reproducibly illuminate the area to photograph. The images are taken in triplicate, centering the camera using the tattoo and the color slide films are processed at a central facility. The quality of the images is assessed and large transparencies are made of the best images. The terminal hairs on the target circle of the transparencies are then counted by the trained technicians.
A total of 10 subjects were treated. All subjects were human males over 18 years of age and had type II or III Vertex alopecia, rated according to the modified Hamilton-Norwood scale. […]
The efficacy was assessed by hair counts 3 months after the treatment and compared to baseline counts.

[3] = topical 0.5% hematoporphyrin and UVA three times a week for eight weeks; first week of treatment; cited from earlier work

In the case of `COc1c2occc2c(OC)c2c(=O)cc(C)oc12` [khellin], the patients treated successfully (alopecia areata; 2% khellin and UVA, alopecia areata) is given as 5 of the 10 and the phototoxicity (alopecia areata; khellin and UVA) is given as “did not cause phototoxicity”.

In the case of `C=Cc1c(C)c2cc3nc(cc4[nH]c(cc5nc(cc1[nH]2)C(C)=C5CCC(=O)OCCO)c(CCC(=O)OCCO)c4C)[C@@]1(C)C3=CC=C(C(=O)OC)[C@H]1C(=O)OC` [QLT0074], the serious adverse events [1] is reported as “No serious adverse events were reported”, the “% change in terminal hair count” value ([2]; 50 J/cm^2 red light (690nm) 2 hours after topical QLT0074 ointment 0.2% w/w) is reported as “+8%” and the “% change in terminal hair count” value ([2]; 75 J/cm^2 red light (690nm) 2 hours after topical QLT0074 ointment 0.2% w/w) is reported as “+4%”.

In the case of `CC1=C(CCC(=O)O)c2cc3[nH]c(cc4nc(cc5[nH]c(cc1n2)c(C)c5C(C)O)C(C)=C4C(C)O)c(C)c3CCC(=O)O` (stereo not drawn) [hematoporphyrin], the “skin reactions at treated sites” value [3] is given as “significant erythema and mild scaling followed by hyperpigmentation”.
